Consider twelve compounds from patent US20210038607A1, “OXADIAZOLYLTHIOPHENE DERIVATIVES USEFUL AS HISTONE DEACETYLASE INHIBITORS” (Karus Therapeutics Limited, priority 2018, published 2021).

In one test the target is T1, Human HDAC1 (Homo sapiens, UniProt Q13547).
T1 construct: full length with C-terminal His-tag and C-terminal FLAG-tag; His (C); FLAG (C); host or cells: baculovirus expression system
The test can be described thus: HDAC1 biochemical assay, AMC-labeled peptide substrate. The note with it: read-out: HDAC Isoform IC50 (nM) 1. The method, boiled down: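 Two-step fluorogenic read: HDAC1 deacetylates 50 μM acetyl-lysine AMC peptide RHKK(Ac)AMC for 1 h at 30° C (pH 8.0, 1% DMSO, with compound), then developer digests the product for fluorescence at Ex/Em 360/460. Enzyme is full-length human, His/FLAG-tagged, insect-cell expressed, at 0.3 ng/ul.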

The target in test [1] is T2, Complex of human HDAC3 and human NCOR2 (Homo sapiens, UniProt O15379).
T2 construct: full length with C-terminal His tag, MW=49.7 kDa; His (C); host or cells: baculovirus expression system (co-expressed)
Briefly: HDAC3 biochemical assay, AMC-labeled peptide substrate. To be noted: read-out: HDAC Isoform IC50 (nM) 3. The method, boiled down: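 Two-stage fluorogenic read: compounds incubated 1 h at 30° C with 50 μM RHKK(Ac)AMC and 0.1 ng/ul HDAC3–NCOR2(395-489) complex (Tris pH8.0, NaCl, KCl, MgCl2, BSA, 1% DMSO). Developer digestion of deacetylated product gives signal at Ex 360/Em 460.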

A further test addresses T3, Human HDAC4 (Homo sapiens, UniProt P56524).
T3 construct: amino acids 627-1085 with N-terminal GST tag; GST (N); host or cells: baculovirus expression system
Briefly: HDAC4 biochemical assay, class IIa-specific substrate. The note with it: read-out: HDAC Isoform IC50 (nM) 4. The method, boiled down: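 Two-step fluorogenic read-out: deacetylated BOC-Lys(trifluoroacetyl)-AMC (50 μM) was digested by developer and measured at Ex/Em 360/460. Deacetylation by 0.004 ng/ul HDAC4 (aa 627-1085, N-terminal GST) ran 30 min at room temperature, pH 8.0 Tris buffer, 1 mg/mL BSA, 1% DMSO.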

In another test the target is T4, Human HDAC8 (Homo sapiens, UniProt Q9BY41).
T4 construct: full length with C-terminal His tag, MW=42.6 kDa; His (C); host or cells: baculovirus expression system
T4 sequence (Q9BY41 1-377): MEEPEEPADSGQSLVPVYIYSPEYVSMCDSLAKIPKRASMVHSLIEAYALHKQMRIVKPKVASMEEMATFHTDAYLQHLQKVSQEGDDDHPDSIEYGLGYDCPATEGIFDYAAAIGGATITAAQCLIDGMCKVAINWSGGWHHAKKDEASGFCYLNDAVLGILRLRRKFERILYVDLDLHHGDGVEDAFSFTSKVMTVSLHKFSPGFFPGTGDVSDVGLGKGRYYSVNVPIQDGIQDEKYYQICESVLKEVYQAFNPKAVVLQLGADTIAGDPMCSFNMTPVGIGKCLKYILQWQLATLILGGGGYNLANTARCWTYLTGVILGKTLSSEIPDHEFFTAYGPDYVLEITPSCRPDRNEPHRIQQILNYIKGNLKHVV
Briefly: HDAC8 biochemical assay, AMC-labeled peptide substrate. To be noted: read-out: HDAC Isoform IC50 (nM) 8. In short, it runs like this:
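Two-step fluorogenic readout: compounds and enzyme deacetylate 100 µM RHK(Ac)K(Ac)AMC for 2 h at 30° C (pH8.0 Tris buffer, BSA, 1% DMSO final), then developer releases AMC, read at 360/460 Ex/Em. Enzyme: 1 ng/ul full-length His-tagged human HDAC8 from baculovirus.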

A further test deals with T5, Human HDAC9 (Homo sapiens, UniProt Q9UKV0).
T5 construct: amino acids 604-1066 with C-terminal His tag; His (C); host or cells: baculovirus expression system
The test can be described thus: HDAC9 biochemical assay, class IIa-specific substrate. To be noted: read-out: HDAC Isoform IC50 (nM) 9. The method, boiled down:
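HDAC9 residues 604-1066 (C-terminal His tag, baculovirus-expressed) at 0.06 ng/ul with 50 μM class IIa substrate Boc-Lys(trifluoroacetyl)-AMC in Tris-HCl pH 8.0 buffer with BSA and 1% DMSO. 30 min at room temperature, then developer added; fluorescence read at 360/460 nm Ex/Em.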

The target of another test is T6, Human HDAC11 (Homo sapiens, UniProt Q96DB2).
T6 construct: Human HDAC11 (full length); His (N); host or cells: baculovirus expression system
T6 sequence (Q96DB2 1-347): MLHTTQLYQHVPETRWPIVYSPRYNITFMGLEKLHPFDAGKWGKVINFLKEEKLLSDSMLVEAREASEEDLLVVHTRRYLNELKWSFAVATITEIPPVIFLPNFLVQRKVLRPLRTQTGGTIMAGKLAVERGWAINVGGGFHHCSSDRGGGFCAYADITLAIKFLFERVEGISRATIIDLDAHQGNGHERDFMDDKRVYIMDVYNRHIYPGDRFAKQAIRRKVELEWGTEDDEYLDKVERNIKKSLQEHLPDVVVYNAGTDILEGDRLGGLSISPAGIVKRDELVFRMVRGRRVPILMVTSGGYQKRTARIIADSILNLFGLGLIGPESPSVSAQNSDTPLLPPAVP
Briefly: HDAC11 biochemical assay, class IIa-specific substrate. The note with it: read-out: HDAC Isoform IC50 (nM) 11. In short, it runs like this: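 Full-length N-His human HDAC11 from baculovirus, 5 ng/μl, incubated with 50 μM Boc-Lys(trifluoroacetyl)-AMC for 30 min at 30 °C. Buffer: 50 mM Tris-HCl pH 8.0, 137 mM NaCl, 2.7 mM KCl, 1 mM MgCl2, 1 mg/mL BSA, 1% DMSO. Developer releases AMC; fluorescence read at 360/460 nm.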

T2 sequence (O15379 whole entry): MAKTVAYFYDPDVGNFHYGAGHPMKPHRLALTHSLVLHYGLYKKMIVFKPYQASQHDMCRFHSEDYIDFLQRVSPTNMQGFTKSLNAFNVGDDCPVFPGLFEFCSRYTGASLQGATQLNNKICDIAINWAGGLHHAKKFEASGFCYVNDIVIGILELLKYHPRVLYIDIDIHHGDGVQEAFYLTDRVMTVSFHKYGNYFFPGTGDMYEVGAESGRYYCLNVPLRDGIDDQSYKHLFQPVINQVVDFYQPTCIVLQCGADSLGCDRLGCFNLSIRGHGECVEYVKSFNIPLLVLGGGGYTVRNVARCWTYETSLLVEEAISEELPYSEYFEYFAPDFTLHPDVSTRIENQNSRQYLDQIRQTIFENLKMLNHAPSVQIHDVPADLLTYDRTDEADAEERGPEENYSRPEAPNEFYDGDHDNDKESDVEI
T2 sequence (Q9Y618 395-489 partner limits assumed): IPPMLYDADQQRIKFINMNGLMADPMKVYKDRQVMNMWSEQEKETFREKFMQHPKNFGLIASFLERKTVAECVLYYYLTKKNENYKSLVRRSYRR
T3 sequence (P56524 627-1084 limits assumed): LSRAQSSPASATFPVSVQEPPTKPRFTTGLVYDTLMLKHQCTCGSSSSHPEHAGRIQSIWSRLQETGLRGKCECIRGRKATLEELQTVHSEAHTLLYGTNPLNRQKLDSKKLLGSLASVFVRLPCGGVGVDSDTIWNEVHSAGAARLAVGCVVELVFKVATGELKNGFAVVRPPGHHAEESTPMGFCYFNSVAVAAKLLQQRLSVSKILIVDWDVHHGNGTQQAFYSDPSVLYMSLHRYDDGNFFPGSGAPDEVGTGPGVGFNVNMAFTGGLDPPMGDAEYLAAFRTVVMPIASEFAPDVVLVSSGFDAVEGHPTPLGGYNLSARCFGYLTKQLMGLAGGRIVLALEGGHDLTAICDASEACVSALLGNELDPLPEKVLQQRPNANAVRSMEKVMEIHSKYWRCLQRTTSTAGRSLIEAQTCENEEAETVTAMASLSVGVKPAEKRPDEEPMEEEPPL
T5 sequence (Q9UKV0 604-1066 isoform Q9UKV0-5): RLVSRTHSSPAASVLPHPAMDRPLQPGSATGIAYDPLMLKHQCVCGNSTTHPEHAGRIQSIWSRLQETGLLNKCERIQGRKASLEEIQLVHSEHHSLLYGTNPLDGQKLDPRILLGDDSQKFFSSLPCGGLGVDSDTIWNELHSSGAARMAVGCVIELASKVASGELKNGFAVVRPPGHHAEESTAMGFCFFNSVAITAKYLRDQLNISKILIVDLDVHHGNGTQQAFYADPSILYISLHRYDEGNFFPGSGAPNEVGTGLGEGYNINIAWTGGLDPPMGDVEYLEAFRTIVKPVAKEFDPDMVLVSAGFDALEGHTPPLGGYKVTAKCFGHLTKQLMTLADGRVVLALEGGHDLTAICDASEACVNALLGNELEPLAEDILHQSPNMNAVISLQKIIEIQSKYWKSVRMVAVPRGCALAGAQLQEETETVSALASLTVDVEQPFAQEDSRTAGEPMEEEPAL
T1 sequence (Q13547 whole entry): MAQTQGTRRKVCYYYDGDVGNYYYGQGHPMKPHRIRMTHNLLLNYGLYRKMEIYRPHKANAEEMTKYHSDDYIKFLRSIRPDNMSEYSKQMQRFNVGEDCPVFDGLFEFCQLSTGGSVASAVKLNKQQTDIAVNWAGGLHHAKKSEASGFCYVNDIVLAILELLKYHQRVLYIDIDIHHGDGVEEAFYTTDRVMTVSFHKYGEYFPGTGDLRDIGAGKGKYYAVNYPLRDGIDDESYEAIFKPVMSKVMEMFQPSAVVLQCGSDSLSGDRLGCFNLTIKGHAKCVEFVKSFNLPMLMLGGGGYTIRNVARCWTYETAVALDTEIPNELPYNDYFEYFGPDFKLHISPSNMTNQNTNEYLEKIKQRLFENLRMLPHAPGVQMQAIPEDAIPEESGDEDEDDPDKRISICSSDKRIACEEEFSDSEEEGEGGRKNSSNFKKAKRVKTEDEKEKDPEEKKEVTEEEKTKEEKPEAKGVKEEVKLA

As for `CNC(=O)c1ccc(N(Cc2ccc(-c3noc(C(F)(F)F)n3)s2)c2cnccn2)nn1` [Example FC, N-Methyl-6-[(pyrazin-2-yl)({5-[5-(trifluoromethyl)-1,2,4-oxadiazol-3-yl]thiophen-2-yl}methyl)amino]pyridazine-3-carboxamide], the IC50 is at most 10000 nM on Human HDAC1; at most 10000 nM in test [1]; at most 1000 nM on Human HDAC4; at most 10000 nM at Human HDAC8; at most 10000 nM on Human HDAC9; over 10000 nM at Human HDAC11.

Take `O=C(c1ccc(N(Cc2ccc(-c3noc(C(F)(F)F)n3)s2)c2cnccn2)nn1)N1CC[S+]([O-])CC1` [Example FD, 4-{6-[(Pyrazin-2-yl)({5-[5-(trifluoromethyl)-1,2,4-oxadiazol-3-yl]thiophen-2-yl}methyl)amino]pyridazine-3-carbonyl}-1lambda4-thiomorpholin-1-one]: the IC50 on Human HDAC1 was at most 10000 nM; in test [1], at most 10000 nM; on Human HDAC4, at most 500 nM; on Human HDAC8 it was at most 10000 nM; at Human HDAC9, at most 10000 nM; at Human HDAC11 it was over 10000 nM.

Regarding `O=C(c1ccc(N(Cc2ccc(-c3noc(C(F)(F)F)n3)s2)c2cnccn2)nn1)N1C[C@@H]2C[C@H]1CO2` [Example FE, 6-[(1S,4S)-2-Oxa-5-azabicyclo[2.2.1]heptane-5-carbonyl]-N-(pyrazin-2-yl)-N-({5-[5-(trifluoromethyl)-1,2,4-oxadiazol-3-yl]thiophen-2-yl}methyl)pyridazin-3-amine], the IC50 was over 10000 nM on Human HDAC1; at most 10000 nM in test [1]; at most 500 nM on Human HDAC4; at most 10000 nM at Human HDAC8; at most 10000 nM on Human HDAC9; over 10000 nM at Human HDAC11.

Regarding `O=C(c1ccc(N(Cc2ccc(-c3noc(C(F)(F)F)n3)s2)c2cnccn2)nn1)N1CCC1` [Example FF, 6-(Azetidine-1-carbonyl)-N-(pyrazin-2-yl)-N-({5-[5-(trifluoromethyl)-1,2,4-oxadiazol-3-yl]thiophen-2-yl}methyl)pyridazin-3-amine], the IC50 on Human HDAC1 was at most 10000 nM; in test [1], at most 10000 nM; at Human HDAC4 it was at most 500 nM; on Human HDAC8, at most 10000 nM; at Human HDAC9, at most 1000 nM; at Human HDAC11, over 10000 nM.

As to `O=C(c1ccc(N(Cc2ccc(-c3noc(C(F)(F)F)n3)s2)c2cnccn2)nn1)N1CCCCC1` [Example FG, 6-(Piperidine-1-carbonyl)-N-(pyrazin-2-yl)-N-({5-[5-(trifluoromethyl)-1,2,4-oxadiazol-3-yl]thiophen-2-yl}methyl)pyridazin-3-amine], the IC50 on Human HDAC1 was over 10000 nM; in test [1], over 10000 nM; at Human HDAC4, at most 500 nM; at Human HDAC8, at most 10000 nM; on Human HDAC9, at most 1000 nM; at Human HDAC11, over 10000 nM.

For the compound `O=C(c1ccc(N(Cc2ccc(-c3noc(C(F)(F)F)n3)s2)c2cnccn2)nn1)N1CCC12COC2` [Example FH, 6-{6-Oxa-1-azaspiro[3.3]heptane-1-carbonyl}-N-(pyrazin-2-yl)-N-({5-[5-(trifluoromethyl)-1,2,4-oxadiazol-3-yl]thiophen-2-yl}methyl)pyridazin-3-amine], the IC50 on Human HDAC1 was at most 10000 nM; in test [1], at most 10000 nM; at Human HDAC4, at most 500 nM; at Human HDAC8, at most 10000 nM; on Human HDAC9, at most 1000 nM; on Human HDAC11, over 10000 nM.

For `O=C(c1ccc(N(Cc2ccc(-c3noc(C(F)(F)F)n3)s2)c2cnccn2)nn1)N1CCCC1` [Example FI, N-(Pyrazin-2-yl)-6-(pyrrolidine-1-carbonyl)-N-({5-[5-(trifluoromethyl)-1,2,4-oxadiazol-3-yl]thiophen-2-yl}methyl)pyridazin-3-amine], the IC50 was at most 10000 nM at Human HDAC1; at most 10000 nM in test [1]; at most 500 nM on Human HDAC4; at most 1000 nM on Human HDAC8; at most 1000 nM on Human HDAC9; over 10000 nM on Human HDAC11.

As to `O=C(c1ccc(N(Cc2ccc(-c3noc(C(F)(F)F)n3)s2)c2cnccn2)nn1)N1CCC2(COC2)C1` [Example FJ, 6-{2-Oxa-6-azaspiro[3.4]octane-6-carbonyl}-N-(pyrazin-2-yl)-N-({5-[5-(trifluoromethyl)-1,2,4-oxadiazol-3-yl]thiophen-2-yl}methyl)pyridazin-3-amine], the IC50 was at most 10000 nM at Human HDAC1; at most 10000 nM in test [1]; at most 500 nM on Human HDAC4; at most 10000 nM at Human HDAC8; at most 1000 nM on Human HDAC9; over 10000 nM at Human HDAC11.

As for `O=C(c1ccc(N(Cc2ccc(-c3noc(C(F)(F)F)n3)s2)c2cnccn2)nn1)N1CC(O)(C(F)(F)F)C1` [Example FK, 1-{6-[(Pyrazin-2-yl)({5-[5-(trifluoromethyl)-1,2,4-oxadiazol-3-yl]thiophen-2-yl}methyl)amino]pyridazine-3-carbonyl}-3-(trifluoromethyl)azetidin-3-ol], the IC50 was over 10000 nM on Human HDAC1; at most 10000 nM in test [1]; at most 500 nM on Human HDAC4; at most 1000 nM at Human HDAC8; at most 500 nM at Human HDAC9; over 10000 nM on Human HDAC11.

Consider `Nc1cnnc(N(Cc2ccc(-c3noc(C(F)(F)F)n3)s2)c2cnccn2)c1` [Example FL, N3-(Pyrazin-2-yl)-N3-({5-[5-(trifluoromethyl)-1,2,4-oxadiazol-3-yl]thiophen-2-yl}methyl)pyridazine-3,5-diamine], for which the IC50 at Human HDAC1 was over 10000 nM; in test [1] it was over 10000 nM; on Human HDAC4, at most 500 nM; at Human HDAC8, at most 10000 nM; at Human HDAC9 it was at most 1000 nM; on Human HDAC11 it was over 10000 nM.

`CC(=O)Nc1cnnc(N(Cc2ccc(-c3noc(C(F)(F)F)n3)s2)c2cnccn2)c1` [Example FM, N-{6-[(Pyrazin-2-yl)({5-[5-(trifluoromethyl)-1,2,4-oxadiazol-3-yl]thiophen-2-yl}methyl)amino]pyridazin-4-yl}acetamide]: the IC50 on Human HDAC1 was at most 10000 nM; in test [1], over 10000 nM; on Human HDAC4, at most 1000 nM; at Human HDAC8 it was at most 10000 nM; at Human HDAC9, at most 10000 nM; at Human HDAC11, over 10000 nM.

On to `FC(F)(F)c1nc(-c2ccc(CN(c3cnccn3)c3ccc(CN4CCOCC4)nn3)s2)no1` [Example FN, 6-[(Morpholin-4-yl)methyl]-N-(pyrazin-2-yl)-N-({5-[5-(trifluoromethyl)-1,2,4-oxadiazol-3-yl]thiophen-2-yl}methyl)pyridazin-3-amine], for which the IC50 was over 10000 nM at Human HDAC1; over 10000 nM in test [1]; at most 1000 nM on Human HDAC4; at most 10000 nM at Human HDAC8; at most 10000 nM on Human HDAC9; over 10000 nM at Human HDAC11.

Broadly, the IC50 is the midpoint of a concentration-inhibition curve.
